Measurements reported in PMC3276566, “Specialized Peptidoglycan Hydrolases Sculpt the Intra-bacterial Niche of Predatory Bdellovibrio and Increase Population Fitness” (PLoS Pathogens, 2012).

Tests used:
Bd3459 [1] = target: T1, Bd3459 (Bdellovibrio bacteriovorus, UniProt Q6MHT0, A37M/S70A); experiment: fluorescent labelling, SDS-PAGE, Typhoon fluorescence scan; type: binding; settings: active-site serine mutant; labelled compound; 1.25 ug/ml Bocillin-FL, 75 ug/ml protein, 20 mM sodium phosphate pH 4.8, 10 min, 37 °C
T1 construct: E. coli BL21(DE3), modified pET41 (GST removed), Hi-Trap His column; about 46 kDa; likely monomer

Bd3459 [2] = target: T2, Bd3459 (Bdellovibrio bacteriovorus, UniProt Q6MHT0, A37M); experiment: as above; type: binding; settings: covalent; labelled compound; 1.25 ug/ml Bocillin-FL, 75 ug/ml protein, 20 mM sodium phosphate pH 4.8, 10 min, 37 °C
T2 construct: E. coli BL21(DE3), modified pET41 (GST removed), Hi-Trap His column; about 46 kDa; likely monomer

Bd3459 [3] = target: T2, Bd3459; experiment: HPLC muropeptide analysis of digested pentapeptide-rich peptidoglycan; also competition with Bocillin-FL labelling; type: biochemical; settings: inhibitor pre-incubated at 0.4 mg/ml, 30 min, 37 °C; E. coli CS703-1 peptidoglycan, 20 mM sodium phosphate pH 4.8; labelling assay 2.5 ug/ml ampicillin

T2 sequence (Q6MHT0 entry or part of it A37M): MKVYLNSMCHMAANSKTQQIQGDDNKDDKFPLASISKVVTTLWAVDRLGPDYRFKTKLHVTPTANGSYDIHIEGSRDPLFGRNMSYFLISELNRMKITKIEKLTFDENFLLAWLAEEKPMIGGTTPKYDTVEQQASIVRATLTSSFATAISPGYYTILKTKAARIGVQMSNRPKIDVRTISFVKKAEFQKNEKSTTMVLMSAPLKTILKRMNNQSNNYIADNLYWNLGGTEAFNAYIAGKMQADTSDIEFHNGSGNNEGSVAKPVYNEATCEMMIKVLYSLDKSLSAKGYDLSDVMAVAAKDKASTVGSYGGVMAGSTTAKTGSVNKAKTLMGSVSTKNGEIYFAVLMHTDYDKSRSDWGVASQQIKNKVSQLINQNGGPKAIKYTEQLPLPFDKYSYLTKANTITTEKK
T1 sequence (Q6MHT0 entry or part of it A37M/S70A): as the sequence (Q6MHT0 entry or part of it A37M) above, with S34A counted along it

Row | Structure (SMILES) | fluorescent labelling, SDS-PAGE, Typhoon fluorescence scan (Bd3459 [1]) | fluorescent labelling, SDS-PAGE, Typhoon fluorescence scan (Bd3459 [2]) | HPLC muropeptide analysis of digested pentapeptide-rich peptidoglycan; also comp (Bd3459 [3])
1 | Cc1cc(C)n2c1C=C1C=CC(CCC(=O)Nc3ccc(OCC(=O)N[C@@H]4C(=O)N5[C@@H]4SC(C)(C)[C@@H]5C(=O)O)cc3)=[N+]1[B-]2(F)F [Bocillin-FL] | Bd3459 (S70A) bound significantly less Bocillin-FL | Bd3459 covalently bound the fluorescent beta-lactam Bocillin-FL | 
2 | CC1(C)S[C@@H]2[C@H](NC(=O)[C@H](N)c3ccccc3)C(=O)N2[C@H]1C(=O)O [ampicillin] |  |  | The addition of the beta-lactam ampicillin inhibited the WT enzyme
